Test system: immortalized MSC cell line
Experiment: Screen for hypoxia mimics with hypoxia response element reporter in immortalized MSC
Assay type: cell-based
Conditions: clonally expanded immortalized MSC cell line
From the text: Because previous screening methods were based mostly on cancer cells and the results thereof can not necessarily be extrapolated to MSC, a novel screening method was developed, based on an immortalized MSC. Using this screening method, we quickly screened a large panel of potential compounds for effects on MSC. Such screening method is useful for screening a large panel of compound for their ability to modulate (i.e. increase or decrease) an angiogenic capacity of a MSC. […]
It is possible to use for instance an (immortalized) MSC and transfect it with a HRE-luciferase construct as described in Said et al (56) or with a 5HRE-ODD-luc construct described in Saha et al (57). Detection of transcription of the reporter gene is then easily achieved by measuring luciferase activity (luminescence) of the cells after contacting said MSC with the compound. […] As a consequence, reporter gene expression is increased, which can be detected, in case of luciferase, by measuring an increase in luminescence in these cells. Vice versa, decreased luminescence is indicative for a compound able to inhibit angiogenesis, which compound may subsequently be used for anti-angiogenic therapy, for instance in anti-tumor therapy. […]

c1cnc2c(c1)ccc1cccnc12 [PHE, 1, 10-phenanthroline]
ability to mimic hypoxia in MSCs: able to mimic hypoxia in MSCs
